Consider 2 molecules from ChEMBL document CHEMBL5303766, “Data for DCP probe FHT-2344” (2022).

Molecules are shown by their SMILES. Where only a bound is given, the exact number is not on record here.

The target in test [1] is Beta-3 adrenergic receptor (Homo sapiens) (UniProt P13945). The note with it: Compound concentration 10.0 uM.
Test [2] deals with Histamine H4 receptor (Homo sapiens) (UniProt Q9H3N8). The note with it: Compound concentration 10.0 uM.
The target in test [3] is T1, Serine/threonine-protein kinase 17B (Homo sapiens) (UniProt O94768).
T1 sequence (whole entry): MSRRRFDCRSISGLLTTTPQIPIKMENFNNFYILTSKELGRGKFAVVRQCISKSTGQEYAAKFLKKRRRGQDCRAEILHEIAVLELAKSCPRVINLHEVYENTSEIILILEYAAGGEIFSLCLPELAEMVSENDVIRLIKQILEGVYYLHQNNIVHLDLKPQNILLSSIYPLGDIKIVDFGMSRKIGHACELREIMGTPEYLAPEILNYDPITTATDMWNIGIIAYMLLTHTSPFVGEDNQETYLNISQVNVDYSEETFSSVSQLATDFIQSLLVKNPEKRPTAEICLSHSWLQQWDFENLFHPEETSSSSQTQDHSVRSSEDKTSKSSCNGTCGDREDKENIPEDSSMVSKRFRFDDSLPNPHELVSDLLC
In words: STK17B SGC Tm panel (DSF). The conditions noted are these: for ΔTm: Compound concentration 10.0 uM.

Test [4] addresses Casein kinase II subunit alpha' (Homo sapiens) (UniProt P19784). In words: CSNK2A2A SGC Tm panel (DSF).
Test [5] concerns the target Chromodomain-helicase-DNA-binding protein 4 (Homo sapiens, UniProt Q14839). The experiment in a line: Measurement of the ATPase catalytic activity using the ADP-Glo detection ([…]). It is filed as functional.
Test [6] addresses 5-hydroxytryptamine receptor 1E (Homo sapiens) (UniProt P28566). The note with it: Compound concentration 10.0 uM.
Test [7] addresses SWI/SNF-related matrix-associated actin-dependent regulator of chromatin subfamily A member 4 (Homo sapiens, UniProt P51532). In words: Measurement of the ATPase catalytic activity using the ADP-Glo detection (SMARCA4). In kind it is functional.
Test [8] deals with Muscarinic acetylcholine receptor M1 (Homo sapiens) (UniProt P11229). The conditions noted are these: Compound concentration 10.0 uM.
Test [9] addresses Casein kinase II subunit alpha' (Homo sapiens) (UniProt P19784). The experiment in a line: CSNK2A2 SGC Tm panel (DSF).
For test [10], the target named is 5-hydroxytryptamine receptor 2B (Homo sapiens, UniProt P41595). The experiment in a line: GPCRScan assay: inhibition of 5-HT2B. Set-up: radioligand conc. used [nm] 1.0 – 2.0, parental cells stable HEK.
The nature of test [11]: GPCRScan assay: inhibition of GABA/PBR. Set-up: species or system Rattus norvegicus; radioligand conc. used [nm] 0.3 – 2.0, parental cells brain tissue.
Test [12] addresses GABA-A receptor; anion channel (Rattus norvegicus) (UniProt O09028+P15431+P18506+P18508+P19969+P20236+P23574+P23576+P28471+P28473+P30191+P62813+P63079+P63138+Q91ZM7+Q9ES14). The conditions noted are these: Compound concentration 10.0 uM.
For test [13], the target named is Sigma non-opioid intracellular receptor 1 (Homo sapiens, UniProt Q99720). The experiment in a line: GPCRScan assay: inhibition of Sigma 1. Also on record: radioligand conc. used [nm] 4.0 – 5.0, parental cells HEKT.
In test [14] the target is Sodium-dependent noradrenaline transporter (Homo sapiens, UniProt P23975). In words: GPCRScan assay: inhibition of NET. Also on record: radioligand conc. used [nm] 1.3 – 5.0, parental cells stable HEK.
Chain of Sodium-dependent noradrenaline transporter (P23975 whole entry): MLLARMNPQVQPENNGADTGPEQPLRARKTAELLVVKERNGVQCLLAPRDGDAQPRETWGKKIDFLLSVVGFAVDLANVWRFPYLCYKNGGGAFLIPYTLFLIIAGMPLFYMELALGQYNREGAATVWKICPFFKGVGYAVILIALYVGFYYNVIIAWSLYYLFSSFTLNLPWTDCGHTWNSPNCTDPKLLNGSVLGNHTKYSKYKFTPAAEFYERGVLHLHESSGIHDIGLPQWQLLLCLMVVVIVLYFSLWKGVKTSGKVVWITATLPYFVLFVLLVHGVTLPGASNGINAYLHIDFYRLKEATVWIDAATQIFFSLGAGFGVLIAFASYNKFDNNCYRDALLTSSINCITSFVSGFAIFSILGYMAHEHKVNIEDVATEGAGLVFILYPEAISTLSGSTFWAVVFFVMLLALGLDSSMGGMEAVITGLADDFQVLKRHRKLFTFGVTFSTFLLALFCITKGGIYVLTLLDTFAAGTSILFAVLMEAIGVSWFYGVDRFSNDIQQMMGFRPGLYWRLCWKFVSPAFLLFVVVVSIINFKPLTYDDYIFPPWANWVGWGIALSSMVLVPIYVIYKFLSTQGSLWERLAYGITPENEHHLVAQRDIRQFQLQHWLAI

Chain of Casein kinase II subunit alpha' (Homo sapiens) (P19784 whole entry, looked up): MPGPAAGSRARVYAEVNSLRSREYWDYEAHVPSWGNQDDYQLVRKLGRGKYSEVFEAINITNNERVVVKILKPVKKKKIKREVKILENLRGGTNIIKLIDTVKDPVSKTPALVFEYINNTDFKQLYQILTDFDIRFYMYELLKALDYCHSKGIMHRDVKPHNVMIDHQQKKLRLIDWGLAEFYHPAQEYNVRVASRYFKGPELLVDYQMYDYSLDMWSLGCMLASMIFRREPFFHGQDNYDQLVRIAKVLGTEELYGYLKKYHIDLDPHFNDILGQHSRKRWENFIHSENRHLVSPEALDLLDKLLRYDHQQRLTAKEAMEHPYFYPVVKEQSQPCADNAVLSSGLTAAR
Chain of 5-hydroxytryptamine receptor 2B (P41595 whole entry): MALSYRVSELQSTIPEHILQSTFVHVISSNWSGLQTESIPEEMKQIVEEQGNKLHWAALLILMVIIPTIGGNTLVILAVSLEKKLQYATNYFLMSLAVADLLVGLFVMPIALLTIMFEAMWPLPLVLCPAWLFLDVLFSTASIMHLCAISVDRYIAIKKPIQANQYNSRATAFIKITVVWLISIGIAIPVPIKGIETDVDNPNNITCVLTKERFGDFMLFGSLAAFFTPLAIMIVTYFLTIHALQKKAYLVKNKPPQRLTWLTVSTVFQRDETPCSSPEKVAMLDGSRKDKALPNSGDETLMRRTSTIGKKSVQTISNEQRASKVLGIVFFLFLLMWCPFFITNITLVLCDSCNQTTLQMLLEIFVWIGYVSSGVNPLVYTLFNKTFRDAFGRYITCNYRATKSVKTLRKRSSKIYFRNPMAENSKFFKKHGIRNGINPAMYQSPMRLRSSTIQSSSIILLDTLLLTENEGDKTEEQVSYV
Chain of Sigma non-opioid intracellular receptor 1 (Q99720 whole entry): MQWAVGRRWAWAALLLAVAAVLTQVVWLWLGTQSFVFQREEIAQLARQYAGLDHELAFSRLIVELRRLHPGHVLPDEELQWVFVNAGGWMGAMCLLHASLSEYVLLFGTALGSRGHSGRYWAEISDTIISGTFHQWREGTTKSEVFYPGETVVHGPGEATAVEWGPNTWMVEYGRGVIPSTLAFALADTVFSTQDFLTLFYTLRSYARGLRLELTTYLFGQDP
Chain of Beta-3 adrenergic receptor (Homo sapiens) (P13945 whole entry, looked up): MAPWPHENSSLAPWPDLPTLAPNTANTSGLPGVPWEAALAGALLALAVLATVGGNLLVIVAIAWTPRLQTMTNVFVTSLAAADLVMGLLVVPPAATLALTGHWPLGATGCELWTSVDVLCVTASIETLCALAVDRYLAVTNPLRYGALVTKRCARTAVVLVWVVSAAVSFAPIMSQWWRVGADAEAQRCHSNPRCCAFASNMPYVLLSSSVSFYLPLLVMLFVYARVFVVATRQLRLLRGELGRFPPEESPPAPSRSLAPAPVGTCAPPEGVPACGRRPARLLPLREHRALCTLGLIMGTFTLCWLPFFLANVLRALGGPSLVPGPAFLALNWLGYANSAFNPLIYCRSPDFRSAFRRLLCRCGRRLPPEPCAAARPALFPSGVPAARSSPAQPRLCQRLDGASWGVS
Chain of Histamine H4 receptor (Homo sapiens) (Q9H3N8 whole entry): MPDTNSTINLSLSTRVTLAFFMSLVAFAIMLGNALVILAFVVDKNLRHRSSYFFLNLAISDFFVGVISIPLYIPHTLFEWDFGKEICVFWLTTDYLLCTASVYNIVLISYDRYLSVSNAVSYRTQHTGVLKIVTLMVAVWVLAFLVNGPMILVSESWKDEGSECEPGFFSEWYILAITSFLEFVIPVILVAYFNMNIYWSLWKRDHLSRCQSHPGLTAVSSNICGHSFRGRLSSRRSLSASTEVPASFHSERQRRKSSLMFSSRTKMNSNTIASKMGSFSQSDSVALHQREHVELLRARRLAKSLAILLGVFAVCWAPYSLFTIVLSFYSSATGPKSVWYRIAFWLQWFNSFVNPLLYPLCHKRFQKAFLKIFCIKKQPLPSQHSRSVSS
Chain of Chromodomain-helicase-DNA-binding protein 4 (Q14839 whole entry): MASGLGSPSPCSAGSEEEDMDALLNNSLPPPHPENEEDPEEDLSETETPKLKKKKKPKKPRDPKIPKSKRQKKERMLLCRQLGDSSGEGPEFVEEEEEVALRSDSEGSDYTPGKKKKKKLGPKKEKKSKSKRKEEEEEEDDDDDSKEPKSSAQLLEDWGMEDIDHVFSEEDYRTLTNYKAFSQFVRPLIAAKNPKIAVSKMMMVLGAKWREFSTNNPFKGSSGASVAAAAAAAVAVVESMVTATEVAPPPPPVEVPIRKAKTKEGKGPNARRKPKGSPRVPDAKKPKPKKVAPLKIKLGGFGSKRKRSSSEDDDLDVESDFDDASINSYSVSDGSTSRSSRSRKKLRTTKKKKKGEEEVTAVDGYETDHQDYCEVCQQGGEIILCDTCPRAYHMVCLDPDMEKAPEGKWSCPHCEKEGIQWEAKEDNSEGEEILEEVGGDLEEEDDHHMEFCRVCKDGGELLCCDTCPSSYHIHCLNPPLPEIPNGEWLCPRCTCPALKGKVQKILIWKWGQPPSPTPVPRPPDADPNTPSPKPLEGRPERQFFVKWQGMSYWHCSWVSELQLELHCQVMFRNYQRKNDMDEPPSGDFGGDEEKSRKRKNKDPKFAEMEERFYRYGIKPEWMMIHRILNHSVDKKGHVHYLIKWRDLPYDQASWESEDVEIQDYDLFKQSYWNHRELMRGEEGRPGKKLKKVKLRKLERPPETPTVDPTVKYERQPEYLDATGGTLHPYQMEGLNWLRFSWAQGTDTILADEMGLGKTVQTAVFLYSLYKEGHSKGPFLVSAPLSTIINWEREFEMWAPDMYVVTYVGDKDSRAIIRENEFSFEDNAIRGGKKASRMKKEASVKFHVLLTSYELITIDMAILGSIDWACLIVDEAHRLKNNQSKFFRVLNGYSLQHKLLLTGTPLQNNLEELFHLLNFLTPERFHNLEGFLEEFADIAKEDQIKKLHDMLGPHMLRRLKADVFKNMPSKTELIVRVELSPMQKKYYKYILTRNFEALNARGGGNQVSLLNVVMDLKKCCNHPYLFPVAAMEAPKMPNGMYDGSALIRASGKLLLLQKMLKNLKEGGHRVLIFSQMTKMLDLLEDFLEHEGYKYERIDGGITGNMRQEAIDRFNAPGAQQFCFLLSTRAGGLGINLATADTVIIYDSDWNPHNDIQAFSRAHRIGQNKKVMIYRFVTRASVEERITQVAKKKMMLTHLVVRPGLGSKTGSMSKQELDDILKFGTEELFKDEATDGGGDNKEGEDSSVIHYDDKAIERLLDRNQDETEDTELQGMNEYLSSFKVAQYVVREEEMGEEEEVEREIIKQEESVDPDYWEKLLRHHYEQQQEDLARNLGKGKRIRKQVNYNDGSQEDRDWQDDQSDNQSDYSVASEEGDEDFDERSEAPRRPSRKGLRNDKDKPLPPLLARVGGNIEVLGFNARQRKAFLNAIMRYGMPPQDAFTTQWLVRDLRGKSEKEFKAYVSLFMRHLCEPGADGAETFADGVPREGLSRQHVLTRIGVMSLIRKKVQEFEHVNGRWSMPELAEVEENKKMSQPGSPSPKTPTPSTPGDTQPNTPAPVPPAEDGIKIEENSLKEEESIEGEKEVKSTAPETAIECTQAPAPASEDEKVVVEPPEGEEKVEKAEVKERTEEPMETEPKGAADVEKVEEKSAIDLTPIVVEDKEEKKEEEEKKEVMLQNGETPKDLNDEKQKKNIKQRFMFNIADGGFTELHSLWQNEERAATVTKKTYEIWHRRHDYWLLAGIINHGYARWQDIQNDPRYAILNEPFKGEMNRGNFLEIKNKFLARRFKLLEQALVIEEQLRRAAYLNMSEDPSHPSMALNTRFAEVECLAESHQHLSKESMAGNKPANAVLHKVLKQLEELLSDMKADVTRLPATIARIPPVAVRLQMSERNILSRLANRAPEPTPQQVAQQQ
Chain of 5-hydroxytryptamine receptor 1E (Homo sapiens) (P28566 whole entry): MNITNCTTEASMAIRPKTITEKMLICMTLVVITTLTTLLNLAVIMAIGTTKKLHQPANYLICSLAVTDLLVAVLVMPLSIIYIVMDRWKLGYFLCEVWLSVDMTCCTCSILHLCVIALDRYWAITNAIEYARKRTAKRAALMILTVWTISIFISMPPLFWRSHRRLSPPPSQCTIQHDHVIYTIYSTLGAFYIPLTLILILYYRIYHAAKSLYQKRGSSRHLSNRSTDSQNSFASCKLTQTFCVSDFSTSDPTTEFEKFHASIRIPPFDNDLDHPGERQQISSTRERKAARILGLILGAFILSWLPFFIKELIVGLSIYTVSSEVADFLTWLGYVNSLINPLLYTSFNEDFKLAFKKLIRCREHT

For `COC[C@H](NC(=O)c1ccn(S(C)(=O)=O)c1)C(=O)Nc1nc(-c2cccc(-c3ccn(C)n3)c2)cs1`, the inhibition – broadly, the change of the read-out against control, counted positive when it falls – in [1] was -3.49%; in test [2], -0.33%. Moreover, the delta Tm Staurosporine positive control worked out at 10 in test [3] and 4.26 in test [4]. Also, the ΔTm was -0.114 in [3] and 0.0547 in [4] (Compound concentration 10.0 uM). Moreover, in [5], the IC50 (in general, the concentration at which inhibition is half-maximal) was > 200000 nM (not active).
As for `C[C@H](NC(=O)c1cn(C2(C#N)CC2)cn1)C(=O)Nc1nc(-c2cccc(-c3ccn(C)n3)c2)cs1`, the values for the inhibition in test [6], in [8] and in [12] were -0.87%, 23.2% and 49.4%, respectively. For the same molecule, the IC50 in test [7] was 3990 nM (not active). For the same molecule, the delta Tm Staurosporine positive control came to 4.26 in test [9] and 10 in test [3]. The ΔTm is -0.217 in test [9] (Compound concentration 10.0 uM) and -12.2 in [3]. Further, the Ki was 508 nM in [10] (read-out: Ki); 490 nM in test [10] (read-out: pKi (converted)); 1580 nM in test [11]; 417 nM in test [13] (read-out: Ki); 407 nM in test [13] (read-out: pKi (converted)); 8270 nM in test [14]. Further, the negative-log Ki (pKi) – broadly, the Ki on a negative log10 scale, so that one unit is a factor of ten – in test [11] is given as 5.81.
